Results on two compounds are retold here after ChEMBL document CHEMBL3992569, “Opioid Receptor Activity and Analgesic Potency of DPDPE Peptide Analogues Containing a Xylene Bridge” (ACS Med Chem Lett, 2017).

Assay [1] deals with Mus musculus. Kind of assay: Antinociceptive activity in CD-1 mouse model of thermal-induced nociception assessed as increase in latency to respond with hind paw lick or jumping at 23 nmol/mouse, icv measured 15 to 60 mins post dose by hot plate test relative to control. It counts as functional. (In general: In hot-plate and tail-flick tests a longer latency is read as antinociception.)

The test system of assay [2] is Mus musculus. Kind of assay: Analgesic activity in CD-1 mouse model of formalin-induced pain assessed as increase in latency to respond with hind paw lick or biting at 150 nmol/mouse, sc administered 15 mins prior to formalin injection measured up to 40 mins post dose. It counts as functional, organism-based.
The subject of assay [3] is Mus musculus. The experiment in a line: Antinociceptive activity in CD-1 mouse model of thermal-induced nociception assessed as increase in latency to tail withdrawal at 23 nmol/mouse, icv measured 15 to 60 mins post dose by tail flick test relative to control. It counts as functional.
The test system of assay [4] is Mus musculus. The experiment in a line: Antinociceptive activity in CD-1 mouse model of thermal-induced nociception assessed as increase in latency to tail withdrawal at 23 nmol/mouse, icv measured 45 mins post dose by tail flick test. The class given is functional.
The test system of assay [5] is Mus musculus. Kind of assay: Antinociceptive activity in CD-1 mouse model of thermal-induced nociception assessed as increase in latency to respond with hind paw lick or jumping at 23 nmol/mouse, icv measured 45 mins post dose by hot plate test. It counts as functional.

The source made the active and inactive calls. No cut-off for these calls is given here.

As to `CC1(C)SCc2cccc(c2)CSC(C)(C)[C@@H](NC(=O)[C@@H](N)Cc2ccc(O)cc2)C(=O)NCC(=O)N[C@@H](Cc2ccccc2)C(=O)N[C@H]1C(=O)O.O=C(O)C(F)(F)F`, the MPE in assay [1] and in assay [3] was greater than 60% in each case. The result in assay [2] was Active.
Turning to `CC1(C)SSC(C)(C)[C@@H](NC(=O)[C@@H](N)Cc2ccc(O)cc2)C(=O)NCC(=O)N[C@@H](Cc2ccccc2)C(=O)N[C@H]1C(=O)O`, in assay [2], the result was inactive. Also, the outcome in assay [4] and in assay [5] was Active.
